Key:
A/Fukuoka/C29/85(H3N2) = assay type: binding, influenza virus; settings: virus 100 HAU in PBS, 150 μl/min for 5 min, room temperature
A/Guizhou/54/89(H3N2) = assay type: binding, influenza virus; settings: virus 100 HAU in PBS, 150 μl/min for 5 min, room temperature
[1] = assay type: binding; settings: 2.0 μM protein in PBS-T, 150 μl/min for 5 min, room temperature; FIG. 3

| Substance | interaction between sugar chain and influenza virus (SPR signal intensity) (A/Fukuoka/C29/85(H3N2)) | interaction between sugar chain and influenza virus (SPR signal intensity) (A/Guizhou/54/89(H3N2)) | interaction of protein with immobilized sugar chains (increase in brightness at spot positions, SPR) [1] |
| --- | --- | --- | --- |
| Neu5Acα2-6Galβ1-4Glc | strong interaction | limited interaction | – |
| bovine serum albumin | – | – | increase in brightness at none of the spot positions |
| concanavalin A | – | – | interacted with the sugar chains immobilized at the spot positions |
| wheat germ agglutinin | – | – | interacted with the sugar chains immobilized at the spot positions |

From patent US9239329B2 (priority 2006, dated 2016)
